Tests used:
GPC3-specific CTLs = conditions: without an autoimmune response; cited from earlier work
[1] = tested on: RMA-S pulsed with mGPC3-1 peptide; assay: IFN-γ ELISPOT of mGPC3-1 peptide-specific CTL line against peptide-pulsed RMA-S; type: cell-based, mouse; conditions: CTL line 1×10^5, RMA-S 5×10^4 pulsed with 10 μg/ml peptide, 20 h
[2] = tested on: RMA-S pulsed with mGPC3-1 peptide; assay: Cytotoxicity assay; type: cell-based, mouse; conditions: mGPC3-1-specific CTL line against RMA-S pulsed with mGPC3-1 peptide; calcein AM, 4 h; non-pulsed RMA-S 2.2%
CD8-positive cells = assay: IFN-γ ELISPOT after mGPC3-1 peptide vaccine in STAM mice; type: in vivo, STAM mice C57BL/6N-NASH; conditions: STAM mice immunized seven times with mGPC3-1 peptide vaccine; CD8-positive cells against RMA-S pulsed with mGPC3-1 peptide; n=3

| Sequence | induction of GPC3-specific CTLs (in words) (GPC3-specific CTLs) | IFN-γ release of CTL line to peptide-pulsed vs non-pulsed RMA-S (in words) [1] | % cytotoxicity [2] [%] | average number of spots (IFN-γ ELISPOT) (CD8-positive cells) [spots] |
| --- | --- | --- | --- | --- |
| EYILSLEEL [GPC3_298–306] | can induce GPC3-specific CTLs | – | – | – |
| FVGEFFTDV [GPC3_144–152] | can induce GPC3-specific CTLs | – | – | – |
| AMFKNNYPSL [mGPC3-1] | – | clearly released more IFN-γ | 16.4 | 100±74.3 |

Source: PMC3597455 (International Journal of Oncology, 2013)
